Measurements reported in patent publication US5110976A, “Insecticidal composition comprising more than one active ingredient” (priority 1985, dated 1992).
Converted amounts (≈) assume the structure as drawn.

Key:
[1] = system: Lucillia sericata; experiment: Comparative contact test (Table 15); format: in vivo, sheep maggot fly (Lucillia sericata), imago; design: key: % mortality after 24 h, Abbott-corrected; conditions: 1440 min
Procedure: (§1) The active ingredient is dissolved in a 1:2 mixture of oil and acetone; filter paper discs (Whatman No. 1, diameter 9 cm) are impregnated with the solutions of the corresponding stereoisomers and enantiomer-pairs, respectively. The acetone is allowed to evaporate, whereupon the insects are exposed to filter papers discs placed in Petri-dishes. Three parallels are used on each dose and 15 insects are placed into each Petri-dish. The percental mortality is determined after 24 hours. The corrected percent mortality is calculated by means of the Abbot Formula.
(§2) The comparative test of Ia, Ib and a 40:60 mixture of Ia:Ib is carried out on bean weevil (Acanthoscelides obtectus), flour-beetle, (Tribolium confusum), house fly (Musca domestica) and sheep maggot fly (Lucillia sericata). The test method described is Example 41.

[2] = system: Musca domestica; experiment: Comparative contact test (Table 15); format: in vivo, house fly (Musca domestica), imago; conditions: 24 h
Procedure: as §1, §2

[3] = system: Tetranychus urticae; experiment: Potter Tower spray on mite-infested leaves (Table 19); format: in vivo, mites (Tetranychus urticae); conditions: Tetranychus urticae, 24 h, mortality after 24 hours; read-out: approx. LD50
Procedure: Leaves already infested with mites (Tetranychus urticae) were sprayed under Potter Tower. Mortality after 24 hours on the treated leaves was compared with the control.

[4] = system: Tribolium confusum; experiment: Contact test, mixtures of Ia and Ib of various ratio (Table 13); format: in vivo, flour beetle (Tribolium confusum); conditions: Tribolium confusum, 24 h
Procedure: as §1
In Table 13 the insecticidal effect of mixtures of enantiomer-pairs Ia and Ib of various ratio is shown on flour beetle (Tribolium confusum). The test method is that disclosed in Example 43.

[5] = system: T. confusum; experiment: Activity as function of time, toxic symptoms (Table 16); format: in vivo, flour beetle (T. confusum), imagos
Procedure: as §1
Activity of cypermethrin stereoisomer-pairs as function of time on flour beetle (T. Confusum).
Flour beetle (T. confusum) imagos are exposed in Petri-dishes according to the method described in Example 43. For each dose 3 parallels are used and 15 animals are applied for each parallel test. In each point of time the insects lying on their backs are counted and the percental results are expressed in Table 16.

[6] = system: Musca domestica; experiment: Filter paper disc contact test (Table 11); format: in vivo, house fly (Musca domestica); conditions: Musca domestica, 24 h
Procedure: In Table 1 the activity of various stereoisomers of cypermethrin on the house fly (Musca domestica) is shown.
as §1

[7] = system: Colorado potato beetle; experiment: Topical test on Colorado potato beetle (Table 14); format: in vivo, Colorado potato beetle (Leptinotersa decemlineata), imago; conditions: Leptinotarsa decemlineata, topical
Procedure: In Table 14 the activity on Colorado potato beetle is shown.
The test materials are dissolved in 2-ethoxyethanol (Cellosolve). One 0.3 μl drop of the solution is applied to the abdominal sterna of the imago. The treatment is carried out by using 2 parallels and 10 insects for each dose. […]

[8] = system: tribolium confusum; experiment: Comparative contact test (Table 15); format: in vivo, flour-beetle (Tribolium confusum), imago; conditions: 24 h
Procedure: as §1, §2

[9] = system: Acanthoscelides obtectus; experiment: Comparative contact test (Table 15); format: in vivo, bean weevil (Acanthoscelides obtectus), imago
Procedure: as §1, §2

[10] = system: Hyphantria cunea; experiment: Topical test on fall webworm (Table 18); format: in vivo, fall wetworm (Hyphantria cunea), L7-L8 larvae; conditions: Hyphantria cunea, topical, 24 h
Procedure: The active ingredients are dissolved in 2-ethoxy-ethanol and the solutions are applied in the form of 0.2 μl droplets onto the back of fall wetworm (Hyphantria cunea) of L7 -L8 larvae stage. The treated worms are placed on strawberry leaves in Petri-dishes. The test is carried out by using […], 2 parallels and 10 insects for each dose. The killed worms are counted after 24 hours and the percental mortality rate is calculated.

[11] = system: Tribolium confusum; experiment: Contact test on Tribolium confusum (Table 12); format: in vivo
Procedure: as §1
It appears from Table 12 that the increased activity shown in Example 41 is due to the synergistic effect of the trans-isomers to Tribolium confusum.

## CC1(C)[C@H](C=C(Cl)Cl)[C@H]1C(=O)O[C@H](C#N)c1cccc(Oc2ccccc2)c1 (relative stereo) [Ib]
[1]; 0.02 mg/disc
  mortality: 22
[1]; 0.07 mg/disc
  mortality: 55
[1]; 0.22 mg/disc
  mortality: 70
[1]; 0.67 mg/disc
  mortality: 75
[1]; 2.0 mg/disc
  mortality: 100
[1]; 6.0 mg/disc
  mortality: 100
[2]; 0.02 mg/disc
  mortality at 20 µg/disc: 0%
[2]; 0.07 mg/disc
  mortality at 70 µg/disc: 18%
[2]; 0.22 mg/disc
  mortality at 220 µg/disc: 67%
[2]; 0.67 mg/disc
  mortality at 670 µg/disc: 100%
[2]; 2.0 mg/disc
  mortality at 2000 µg/disc: 100%
[2]; 6.0 mg/disc
  mortality at 6000 µg/disc: 100%
[3]
  LC50: ~0.34 µg/mL (≈ 0.817 µM)
[4]; 0.06 mg/disc
  mortality at 60 µg/disc: 46%
[4]; 0.25 mg/disc
  mortality at 250 µg/disc: 100%
[4]; 0.02 mg/disc
  mortality at 20 µg/disc: 8%
[4]; 1.00 mg/disc
  mortality at 1000 µg/disc: 100%
[5]; 30 minutes
  % of insects showing toxic symptoms: 0%
[5]; 30 minutes, 0.33 mg/disc
  % of insects showing toxic symptoms: 0%
[5]; 30 minutes, 1.00 mg/disc
  % of insects showing toxic symptoms: 47%
[5]; 30 minutes, 3.00 mg/disc
  % of insects showing toxic symptoms: 61%
[5]; 60 minutes
  % of insects showing toxic symptoms: 0%
[5]; 60 minutes, 0.33 mg/disc
  % of insects showing toxic symptoms: 21%
[5]; 60 minutes, 1.00 mg/disc
  % of insects showing toxic symptoms: 82%
[5]; 60 minutes, 3.00 mg/disc
  % of insects showing toxic symptoms: 100%
[5]; 120 minutes
  % of insects showing toxic symptoms: 28%
[5]; 120 minutes, 0.33 mg/disc
  % of insects showing toxic symptoms: 100%
[5]; 120 minutes, 1.00 mg/disc
  % of insects showing toxic symptoms: 100%
[5]; 120 minutes, 3.00 mg/disc
  % of insects showing toxic symptoms: 100%
[5]; 180 minutes
  % of insects showing toxic symptoms: 56%
[5]; 180 minutes, 0.33 mg/disc
  % of insects showing toxic symptoms: 100%
[5]; 180 minutes, 1.00 mg/disc
  % of insects showing toxic symptoms: 100%
[5]; 180 minutes, 3.00 mg/disc
  % of insects showing toxic symptoms: 100%
[6]; 0.04 mg/disc
  mortality at 40 µg/disc: 32%
[6]; 0.11 mg/disc
  mortality at 110 µg/disc: 62%
[6]; 0.33 mg/disc
  mortality at 330 µg/disc: 95%
[6]; 1.00 mg/disc
  mortality at 1000 µg/disc: 100%
[6]; 3.00 mg/disc
  mortality at 3000 µg/disc: 100%
[7]; read-out: 24 hours' mortality %, 0.05 μg/beetle
  mortality at 0.05 µg/beetle: 0%
[7]; read-out: 24 hours' mortality %, 0.10 μg/beetle
  mortality at 0.1 µg/beetle: 25%
[7]; read-out: 24 hours' mortality %, 0.20 μg/beetle
  mortality at 0.2 µg/beetle: 75%
[7]; read-out: 24 hours' mortality %, 0.40 μg/beetle
  mortality at 0.4 µg/beetle: 85%
[8]; 0.02 mg/disc
  mortality at 20 µg/disc: 14%
[8]; 0.07 mg/disc
  mortality at 70 µg/disc: 73%
[8]; 0.22 mg/disc
  mortality at 220 µg/disc: 100%
[8]; 0.67 mg/disc
  mortality at 670 µg/disc: 100%
[8]; 2.0 mg/disc
  mortality at 2000 µg/disc: 100%
[8]; 6.0 mg/disc
  mortality at 6000 µg/disc: 100%
[9]; Acanthoscelides obtectus, 24 h, 0.02 mg/disc
  mortality at 20 µg/disc: 32%
[9]; Acanthoscelides obtectus, 24 h, 0.07 mg/disc
  mortality at 70 µg/disc: 55%
[9]; Acanthoscelides obtectus, 24 h, 0.22 mg/disc
  mortality at 220 µg/disc: 87%
[9]; Acanthoscelides obtectus, 24 h, 0.67 mg/disc
  mortality at 670 µg/disc: 100%
[9]; Acanthoscelides obtectus, 24 h, 2.0 mg/disc
  mortality at 2000 µg/disc: 100%
[9]; Acanthoscelides obtectus, 24 h, 6.0 mg/disc
  mortality at 6000 µg/disc: 100%
[9]; Example 47, further insect species, Ib versus Ia
  comparative activity: more active than Ia
[10]; 0.023 (μg/disc)
  mortality at 0.023 µg/disc: 10%
[10]; 0.047 (μg/disc)
  mortality at 0.047 µg/disc: 15%
[10]; 0.094 (μg/disc)
  mortality at 0.094 µg/disc: 30%
[10]; 0.188 (μg/disc)
  mortality at 0.188 µg/disc: 70%
[10]; 0.375 (μg/disc)
  mortality at 0.375 µg/disc: 80%
[11]; Tribolium confusum, 24 h, 0.11 mg/disc
  mortality at 110 µg/disc: 64%
[11]; Tribolium confusum, 24 h, 0.33 mg/disc
  mortality at 330 µg/disc: 89%
[11]; Tribolium confusum, 24 h, 1.00 mg/disc
  mortality at 1000 µg/disc: 100%
[11]; Tribolium confusum, 24 h, 3.00 mg/disc
  mortality at 3000 µg/disc: 100%
[11]; in vivo
  synergism between the members of the enantiomer-pair: synergism observed
